# Experimental data published in patent publication US11274083B2, “Substituted thiophenyl uracils, salts thereof and the use thereof as herbicidal agents” (Syngenta Crop Protection AG, priority 2017, dated 2022).
# How the values were obtained:
# Type in all cases: in vivo
# Alopecurus myosuroides [1] = test: Herbicidal action pre-emergence, greenhouse pot test; settings: application rate 320 g/ha
# Summary of the method: (§1)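 Seeds sown in pots and covered with soil; WP or EC formulations sprayed onto the soil surface as aqueous suspension/emulsion with 0.5% additive at 600 L/ha water, at 320 g/ha or lower. Plants kept in greenhouse; efficacy scored visually after about 3 weeks as % versus untreated controls (100% = dead).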
# Pharbitis purpurea [2] = test: as above
# Summary of the method: as §1
# Echinochloa crus-galli [3] = test: as above; settings: application rate 320 g/ha
# Summary of the method: as §1
# Hordeum murinum [4] = test: as above; settings: application rate 320 g/ha
# Summary of the method: as §1
# Lolium rigidum [5] = test: as above; settings: application rate 320 g/ha
# Summary of the method: as §1
# Viola tricolor [6] = test: as above
# Summary of the method: as §1
# Setaria viridis [7] = test: as above
# Summary of the method: as §1
# Stellaria media [8] = test: as above
# Summary of the method: as §1
# Abutilon theophrasti [9] = test: as above
# Summary of the method: as §1
# Amaranthus retroflexus [10] = test: as above
# Summary of the method: as §1
# Veronica persica [11] = test: as above
# Summary of the method: as §1
# Polygonum convolvulus [12] = test: as above
# Summary of the method: as §1
# Avena fatua [13] = test: as above; settings: application rate 320 g/ha
# Summary of the method: as §1
# Matricaria inodora [14] = test: as above
# Alopecurus myosuroides [15] = test: Herbicidal action post-emergence, greenhouse pot test; settings: scored visually after about 3 weeks vs untreated controls
# Summary of the method: (§2)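 Weeds in sandy loam pots sprayed at one-leaf stage (2–3 weeks after sowing) with WP or EC formulations in water plus 0.5% additive, 600 L/ha, at 80 g/ha or lower. After about 3 weeks in greenhouse, efficacy scored visually versus untreated controls (100% = dead, 0% = like control).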
# Pharbitis purpurea [16] = test: as above
# Summary of the method: as §2
# Echinochloa crus-galli [17] = test: as above; settings: application rate 80 g/ha
# Summary of the method: as §2
# Hordeum murinum [18] = test: as above
# Summary of the method: as §2
# Lolium rigidum [19] = test: as above; settings: application rate 80 g/ha
# Summary of the method: as §2
# Viola tricolor [20] = test: as above
# Summary of the method: as §2
# Setaria viridis [21] = test: as above
# Summary of the method: as §2
# Stellaria media [22] = test: as above
# Summary of the method: as §2
# Abutilon theophrasti [23] = test: as above
# Summary of the method: as §2
# Amaranthus retroflexus [24] = test: as above
# Summary of the method: as §2
# Veronica persica [25] = test: as above
# Summary of the method: as §2
# Polygonum convolvulus [26] = test: as above
# Summary of the method: as §2
# Avena fatua [27] = test: as above; settings: application rate 80 g/ha
# Summary of the method: as §2
# Matricaria inodora [28] = test: as above; settings: application rate 80 g/ha
# Summary of the method: as §2
# Digitaria sanguinalis = test: as above; settings: application rate 80 g/ha
# Triticum aestivum = test: Crop compatibility post-emergence, greenhouse pot test
# Summary of the method: (§3)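 Greenhouse post-emergence spray at one-leaf stage, 600 L/ha with 0.5% additive. Injury was assessed visually after about 3 weeks as % of untreated control.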
# Oryza sativa = test: as above
# Summary of the method: as §3
# Zea mays = test: as above
# Summary of the method: as §3
# Cyperus esculentus = test: Herbicidal action pre-emergence, greenhouse pot test
# Summary of the method: as §1
# Glycine max = test: Crop compatibility post-emergence, greenhouse pot test; settings: application rate 20 g/ha
# Summary of the method: as §3
Compound,Alopecurus myosuroides (Efficacy in %) (Alopecurus myosuroides [1]),Echinochloa crus-galli (Efficacy in %) (Echinochloa crus-galli [3]),Hordeum murinum (Efficacy in %) (Hordeum murinum [4]),Lolium rigidum (Efficacy in %) (Lolium rigidum [5]),Amaranthus retroflexus (Efficacy in %) (Amaranthus retroflexus [10]; application rate 80 g/ha),Veronica persica (Efficacy in %) (Veronica persica [11]; application rate 80 g/ha),Avena fatua (Efficacy in %) (Avena fatua [13]),Alopecurus myosuroides (Efficacy in %) (Alopecurus myosuroides [15]; application rate 80 g/ha),Pharbitis purpurea (Efficacy in %) (Pharbitis purpurea [16]; application rate 20 g/ha),Echinochloa crus-galli (Efficacy in %) (Echinochloa crus-galli [17]),Lolium rigidum (Efficacy in %) (Lolium rigidum [19]),Viola tricolor (Efficacy in %) (Viola tricolor [20]; application rate 80 g/ha),Setaria viridis (Efficacy in %) (Setaria viridis [21]; application rate 80 g/ha),Abutilon theophrasti (Efficacy in %) (Abutilon theophrasti [23]; application rate 80 g/ha),Amaranthus retroflexus (Efficacy in %) (Amaranthus retroflexus [24]; application rate 80 g/ha),Veronica persica (Efficacy in %) (Veronica persica [25]; application rate 20 g/ha),Avena fatua (Efficacy in %) (Avena fatua [27]),Matricaria inodora (Efficacy in %) (Matricaria inodora [28]),Hordeum murinum (Efficacy in %) (Hordeum murinum [18]; application rate 80 g/ha),Polygonum convolvulus (Efficacy in %) (Polygonum convolvulus [26]; application rate 80 g/ha),other results
COC(=O)CCOC(=O)C(C)Sc1cc(-n2c(=O)cc(C(F)(F)F)n(C)c2=O)c(F)cc1Cl (centres unmarked) [I.1-2],90%,100%,90%,100%,100%,100%,90%,100%,100%,100%,90%,100%,100%,100%,100%,100%,80%,100%,–,–,Pharbitis purpurea (Efficacy in %) (Pharbitis purpurea [2]; application rate 80 g/ha): 100%; Viola tricolor (Efficacy in %) (Viola tricolor [6]; application rate 80 g/ha): 100%; Setaria viridis (Efficacy in %) (Setaria viridis [7]; application rate 80 g/ha): 100%; Stellaria media (Efficacy in %) (Stellaria media [8]; application rate 80 g/ha): 100%; Abutilon theophrasti (Efficacy in %) (Abutilon theophrasti [9]; application rate 80 g/ha): 100%; Polygonum convolvulus (Efficacy in %) (Polygonum convolvulus [12]; application rate 80 g/ha): 100%; Matricaria inodora (Efficacy in %) (Matricaria inodora [14]; application rate 80 g/ha): 100%; Hordeum murinum (Efficacy in %) (Hordeum murinum [18]; application rate 20 g/ha): 100%; Stellaria media (Efficacy in %) (Stellaria media [22]; application rate 20 g/ha): 100%; Polygonum convolvulus (Efficacy in %) (Polygonum convolvulus [26]; application rate 20 g/ha): 100%
CCCOC(=O)CCOC(=O)C(C)Sc1cc(-n2c(=O)cc(C(F)(F)F)n(C)c2=O)c(F)cc1Cl (centres unmarked) [I.1-8],80%,100%,–,90%,–,–,–,90%,–,100%,90%,100%,100%,100%,100%,–,80%,100%,90%,100%,Digitaria sanguinalis (Efficacy in %) (Digitaria sanguinalis): 100%; Triticum aestivum (Efficacy in %) (Triticum aestivum; application rate 20 g/ha): 20%; Oryza sativa (Efficacy in %) (Oryza sativa; application rate 5 g/ha): 20%; Pharbitis purpurea (Efficacy in %) (Pharbitis purpurea [2]; application rate 320 g/ha): 100%; Viola tricolor (Efficacy in %) (Viola tricolor [6]; application rate 320 g/ha): 100%; Setaria viridis (Efficacy in %) (Setaria viridis [7]; application rate 320 g/ha): 100%; Stellaria media (Efficacy in %) (Stellaria media [8]; application rate 320 g/ha): 100%; Abutilon theophrasti (Efficacy in %) (Abutilon theophrasti [9]; application rate 320 g/ha): 100%; Amaranthus retroflexus (Efficacy in %) (Amaranthus retroflexus [10]; application rate 320 g/ha): 100%; Veronica persica (Efficacy in %) (Veronica persica [11]; application rate 320 g/ha): 100%; Polygonum convolvulus (Efficacy in %) (Polygonum convolvulus [12]; application rate 320 g/ha): 100%; Matricaria inodora (Efficacy in %) (Matricaria inodora [14]; application rate 320 g/ha): 100%; Pharbitis purpurea (Efficacy in %) (Pharbitis purpurea [16]; application rate 80 g/ha): 100%; Stellaria media (Efficacy in %) (Stellaria media [22]; application rate 80 g/ha): 100%; Veronica persica (Efficacy in %) (Veronica persica [25]; application rate 80 g/ha): 100%
COC(=O)CC(CC(=O)OC)OC(=O)C(C)Sc1cc(-n2c(=O)cc(C(F)(F)F)n(C)c2=O)c(F)cc1Cl (centres unmarked) [I.1-127],90%,100%,100%,100%,–,–,90%,90%,100%,100%,100%,100%,100%,100%,–,100%,80%,100%,90%,100%,Zea mays (Efficacy in %) (Zea mays; application rate 5 g/ha): 20%; Pharbitis purpurea (Efficacy in %) (Pharbitis purpurea [2]; application rate 320 g/ha): 100%; Viola tricolor (Efficacy in %) (Viola tricolor [6]; application rate 320 g/ha): 100%; Setaria viridis (Efficacy in %) (Setaria viridis [7]; application rate 320 g/ha): 100%; Stellaria media (Efficacy in %) (Stellaria media [8]; application rate 320 g/ha): 100%; Abutilon theophrasti (Efficacy in %) (Abutilon theophrasti [9]; application rate 320 g/ha): 100%; Amaranthus retroflexus (Efficacy in %) (Amaranthus retroflexus [10]; application rate 20 g/ha): 100%; Veronica persica (Efficacy in %) (Veronica persica [11]; application rate 320 g/ha): 100%; Polygonum convolvulus (Efficacy in %) (Polygonum convolvulus [12]; application rate 320 g/ha): 100%; Matricaria inodora (Efficacy in %) (Matricaria inodora [14]; application rate 320 g/ha): 100%; Stellaria media (Efficacy in %) (Stellaria media [22]; application rate 20 g/ha): 100%; Amaranthus retroflexus (Efficacy in %) (Amaranthus retroflexus [24]; application rate 20 g/ha): 100%
CON(C)C(=O)COC(=O)C(C)Sc1cc(-n2c(=O)cc(C(F)(F)F)n(C)c2=O)c(F)cc1Cl (centres unmarked) [I.1-242],90%,100%,90%,100%,100%,100%,80%,–,–,100%,100%,100%,100%,100%,100%,–,80%,100%,90%,100%,Zea mays (Efficacy in %) (Zea mays; application rate 80 g/ha): 20%; Triticum aestivum (Efficacy in %) (Triticum aestivum; application rate 5 g/ha): 20%; Oryza sativa (Efficacy in %) (Oryza sativa; application rate 5 g/ha): 20%; Pharbitis purpurea (Efficacy in %) (Pharbitis purpurea [2]; application rate 80 g/ha): 100%; Viola tricolor (Efficacy in %) (Viola tricolor [6]; application rate 80 g/ha): 100%; Setaria viridis (Efficacy in %) (Setaria viridis [7]; application rate 80 g/ha): 100%; Stellaria media (Efficacy in %) (Stellaria media [8]; application rate 80 g/ha): 100%; Cyperus esculentus (Efficacy in %) (Cyperus esculentus; application rate 80 g/ha): 80%; Abutilon theophrasti (Efficacy in %) (Abutilon theophrasti [9]; application rate 80 g/ha): 100%; Polygonum convolvulus (Efficacy in %) (Polygonum convolvulus [12]; application rate 80 g/ha): 100%; Matricaria inodora (Efficacy in %) (Matricaria inodora [14]; application rate 80 g/ha): 100%; Alopecurus myosuroides (Efficacy in %) (Alopecurus myosuroides [15]; application rate 20 g/ha): 90%; Pharbitis purpurea (Efficacy in %) (Pharbitis purpurea [16]; application rate 80 g/ha): 100%; Stellaria media (Efficacy in %) (Stellaria media [22]; application rate 80 g/ha): 100%; Veronica persica (Efficacy in %) (Veronica persica [25]; application rate 80 g/ha): 100%
CCC(Sc1cc(-n2c(=O)cc(C(F)(F)F)n(C)c2=O)c(F)cc1Cl)C(=O)OCCC(=O)OC (centres unmarked) [I.2-2],100%,100%,100%,100%,100%,100%,–,100%,100%,100%,80%,100%,100%,100%,100%,100%,80%,100%,80%,100%,Triticum aestivum (Efficacy in %) (Triticum aestivum; application rate 5 g/ha): 20%; Oryza sativa (Efficacy in %) (Oryza sativa; application rate 5 g/ha): 20%; Pharbitis purpurea (Efficacy in %) (Pharbitis purpurea [2]; application rate 320 g/ha): 100%; Viola tricolor (Efficacy in %) (Viola tricolor [6]; application rate 320 g/ha): 100%; Setaria viridis (Efficacy in %) (Setaria viridis [7]; application rate 320 g/ha): 100%; Stellaria media (Efficacy in %) (Stellaria media [8]; application rate 320 g/ha): 100%; Cyperus esculentus (Efficacy in %) (Cyperus esculentus; application rate 320 g/ha): 90%; Abutilon theophrasti (Efficacy in %) (Abutilon theophrasti [9]; application rate 320 g/ha): 100%; Polygonum convolvulus (Efficacy in %) (Polygonum convolvulus [12]; application rate 320 g/ha): 100%; Matricaria inodora (Efficacy in %) (Matricaria inodora [14]; application rate 320 g/ha): 100%; Stellaria media (Efficacy in %) (Stellaria media [22]; application rate 80 g/ha): 100%
CCOC(=O)CCOC(=O)C(CC(C)C)Sc1cc(-n2c(=O)c(C)c(C(F)(F)F)n(C)c2=O)c(F)cc1Cl (centres unmarked) [I.14-3],–,–,–,–,–,–,–,–,100%,–,–,–,–,–,–,100%,–,–,–,–,Triticum aestivum (Efficacy in %) (Triticum aestivum; application rate 20 g/ha): 20%; Oryza sativa (Efficacy in %) (Oryza sativa; application rate 20 g/ha): 0%; Glycine max (Efficacy in %) (Glycine max): 20%; Viola tricolor (Efficacy in %) (Viola tricolor [20]; application rate 20 g/ha): 100%; Setaria viridis (Efficacy in %) (Setaria viridis [21]; application rate 20 g/ha): 90%; Abutilon theophrasti (Efficacy in %) (Abutilon theophrasti [23]; application rate 20 g/ha): 100%; Amaranthus retroflexus (Efficacy in %) (Amaranthus retroflexus [24]; application rate 20 g/ha): 100%; Polygonum convolvulus (Efficacy in %) (Polygonum convolvulus [26]; application rate 20 g/ha): 100%
